According to patent US7235570B2, “1,4-dihydropyridine and pyridine compounds as calcium channel blockers” (Vittal Mallya Scientific Research, priority 2002, dated 2007):

Biological target: T1, T-type calcium channels (α1G) (Homo sapiens, UniProt O43497)
T1 construct: expressed in transfected cells
Test: T-type calcium channel block, whole-cell voltage clamp in HEK293 cells
Assay type: cell-based
Settings: α1G stably expressed in HEK293 cells, step to −30 mV from holding potential −110 mV
Protocol: T-type calcium channels (α1G) were stably expressed in HEK293 cells and maintained at 37° C. in DMEM. Cells were released from dishes using trypsin and EGTA or Accutase and studied within 4 hours of isolation. Individual cells were placed on the stage of an inverted microscope and patched with pipettes pulled from aluminasilicate glass capillary tubes, which had resistances of 0.8-1.5 Mohm. Currents were recorded using an Axopatch 200 (Axon Instruments, Inc.) and pClamp data acquisition software (8.1). The pipette solution contained (in mM): KCl 130, EGTA 11, HEPES 10, MGATP 5, pH ═7.4. The bath solution contained (in mM): NaCl 140, CaCl2 1, HEPES 10, pH═7.4. Test compounds were diluted into bath solution to the desired concentration (100 nM-10 μM) from a stock solutions (3 or 10 mM in DMSO). Current measurements were made at 20-23° C. Cells were held at −110 mV in order to maximize occupancy in the closed state and depolarized for 100 ms to various potentials. Currents were capacity corrected using 16-64 subthreshold responses (voltage steps of 10 or 20 mV) and leak subtracted, based on linear interpolation between the current at the holding potential and 0 mV. Cells were moved from a control chamber to a chamber with test compound and the effect of the drug was assessed using a voltage clamp protocol that stepped to −30 mV for 100 ms from a holding potential of −110 mV once every 5 s. After each 10-13 minutes, the train protocol was interrupted and a full current voltage relationship obtained. In general for each compound, four cells were studied for a minimum of 13 minutes, two in drug at 500 nM and two at 1 μM. In some cases other concentrations were also studied. Data were analyzed using Matlab (Mathworks, Natick, Mass.). Drug efficacy was estimated using the relationship: Blocked Fraction=[Drug]/(IC50+[Drug])

T1 sequence (O43497 whole entry): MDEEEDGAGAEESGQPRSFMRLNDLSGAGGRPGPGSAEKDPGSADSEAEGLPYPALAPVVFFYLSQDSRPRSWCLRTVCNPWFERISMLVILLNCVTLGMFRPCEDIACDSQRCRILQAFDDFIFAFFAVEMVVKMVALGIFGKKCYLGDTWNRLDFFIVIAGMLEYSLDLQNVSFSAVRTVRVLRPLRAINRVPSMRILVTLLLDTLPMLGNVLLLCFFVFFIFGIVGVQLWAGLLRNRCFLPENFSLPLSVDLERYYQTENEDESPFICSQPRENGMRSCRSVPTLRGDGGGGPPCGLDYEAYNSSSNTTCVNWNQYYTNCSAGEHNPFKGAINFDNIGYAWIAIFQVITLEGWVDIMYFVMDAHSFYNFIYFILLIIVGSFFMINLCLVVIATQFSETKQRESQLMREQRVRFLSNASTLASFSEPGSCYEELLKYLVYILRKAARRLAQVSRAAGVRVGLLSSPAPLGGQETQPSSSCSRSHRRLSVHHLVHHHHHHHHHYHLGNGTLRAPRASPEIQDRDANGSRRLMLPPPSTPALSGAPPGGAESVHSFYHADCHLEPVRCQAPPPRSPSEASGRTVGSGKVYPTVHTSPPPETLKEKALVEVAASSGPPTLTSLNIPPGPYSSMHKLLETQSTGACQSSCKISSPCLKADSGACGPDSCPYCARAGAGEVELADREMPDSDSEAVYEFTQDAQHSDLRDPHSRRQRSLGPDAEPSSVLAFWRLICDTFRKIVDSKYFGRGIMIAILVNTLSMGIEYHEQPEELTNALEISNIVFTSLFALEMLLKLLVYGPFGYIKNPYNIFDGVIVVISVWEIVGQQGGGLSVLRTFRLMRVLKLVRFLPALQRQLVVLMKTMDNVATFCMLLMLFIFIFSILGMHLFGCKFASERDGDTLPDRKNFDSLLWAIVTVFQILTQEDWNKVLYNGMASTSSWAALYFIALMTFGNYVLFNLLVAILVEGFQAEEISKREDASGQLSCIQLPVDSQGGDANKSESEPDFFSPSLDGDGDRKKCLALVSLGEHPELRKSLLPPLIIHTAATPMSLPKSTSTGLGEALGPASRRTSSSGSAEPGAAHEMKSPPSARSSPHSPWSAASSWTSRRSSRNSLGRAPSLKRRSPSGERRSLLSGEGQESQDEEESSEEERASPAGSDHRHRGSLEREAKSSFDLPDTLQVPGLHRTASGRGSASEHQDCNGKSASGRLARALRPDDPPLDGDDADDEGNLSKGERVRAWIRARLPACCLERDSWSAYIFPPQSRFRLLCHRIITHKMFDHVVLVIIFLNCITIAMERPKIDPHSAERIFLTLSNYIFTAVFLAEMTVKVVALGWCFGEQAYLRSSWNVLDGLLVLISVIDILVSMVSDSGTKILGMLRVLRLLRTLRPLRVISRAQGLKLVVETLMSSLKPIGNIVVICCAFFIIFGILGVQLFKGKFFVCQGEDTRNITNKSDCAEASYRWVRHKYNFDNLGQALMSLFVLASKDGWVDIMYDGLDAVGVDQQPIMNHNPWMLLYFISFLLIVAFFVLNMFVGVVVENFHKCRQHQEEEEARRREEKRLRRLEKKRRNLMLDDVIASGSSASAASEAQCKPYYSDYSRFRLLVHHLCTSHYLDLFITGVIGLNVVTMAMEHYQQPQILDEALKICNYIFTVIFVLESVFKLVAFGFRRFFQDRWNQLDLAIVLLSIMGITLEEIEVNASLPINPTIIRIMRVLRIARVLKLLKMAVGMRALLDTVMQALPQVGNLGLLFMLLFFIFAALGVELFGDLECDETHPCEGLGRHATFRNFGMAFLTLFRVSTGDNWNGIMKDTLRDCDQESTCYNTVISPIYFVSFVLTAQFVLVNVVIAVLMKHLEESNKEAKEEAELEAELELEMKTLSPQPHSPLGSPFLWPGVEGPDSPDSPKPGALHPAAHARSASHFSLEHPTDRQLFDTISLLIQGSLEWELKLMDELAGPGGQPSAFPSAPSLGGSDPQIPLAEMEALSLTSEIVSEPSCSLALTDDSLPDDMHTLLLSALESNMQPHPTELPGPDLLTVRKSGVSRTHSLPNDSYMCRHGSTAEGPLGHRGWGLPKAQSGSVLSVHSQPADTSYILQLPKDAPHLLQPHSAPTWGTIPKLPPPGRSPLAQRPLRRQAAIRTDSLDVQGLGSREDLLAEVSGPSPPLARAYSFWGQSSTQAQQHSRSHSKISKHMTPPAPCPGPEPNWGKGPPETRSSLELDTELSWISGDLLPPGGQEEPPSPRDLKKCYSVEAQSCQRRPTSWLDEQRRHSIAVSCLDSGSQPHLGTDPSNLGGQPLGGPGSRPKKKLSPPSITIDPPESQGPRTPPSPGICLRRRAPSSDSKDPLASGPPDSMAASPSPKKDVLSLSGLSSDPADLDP

% of calcium channels blocked (1 μM of comp'd) [%] | % of calcium channels blocked (500 nM of comp'd) [%] | SMILES
80 | – | CCCCCCCCCCCCCCCc1cccc(OC(C)C)c1C1C(C(=O)OC)=C(C)NC(C)=C1C(=O)OC [DHP-5, dimethyl 1,4-dihydro-4-(2′-isopropoxy-6′-pentadecylphenyl)-2,6-dimethyl-3,5-pyridine dicarboxylate]
90 | 75 | COCC(=O)O[C@]1(CCN(C)CCCc2nc3ccccc3[nH]2)CCc2cc(F)ccc2[C@@H]1C(C)C [Mibefradil]
77 | 5 | CCCCCCCCCCCCCCCc1cccc(OCC)c1C1C(C(=O)OCC)=C(C)NC(C)=C1C(=O)OC(C)C (stereo not shown) [DHP-12, ethyl isopropyl 1,4-dihydro-4-(2′-ethoxy-6′-pentadecylphenyl)-2,6-dimethyl-3,5-pyridine dicarboxylate]
15 | 0 | COC(=O)C1=C(C)NC(C)=C(C(=O)OC)C1c1ccccc1[N+](=O)[O-] [Nifedipine]
